Patent US20250136576A1, “Heterocyclic Compounds and Uses Thereof” (ACEA Therapeutics, Inc., priority 2021, published 2025)

The molecules below were run on KM12-luc cells (assay: Cell proliferation and growth inhibition assay (CCK-8) in KM12-luc). Details: KM12-Luc, 72 h, KM12-luc cells, treated with test compounds for 72 hrs, CCK-8 viability; read-out: NTRK IC50 in KM12-luc.
Assay type: cell-based
Experimental: MV-4-11 and H1975 cells were obtained from the American Type Culture Collection and KM12-luc cells were obtained from JCRB Cell Bank. All cell lines were maintained at 37° C. with 5% C02, in media supplemented with 10% fetal bovine serum and penicillin (100 units/mL) and streptomycin (100 μg/mL). MV-4-11 cells were maintained in Iscove's Modified Dubecco's Medium, H1975 cells were cultured with RPMI 1640 media, and KM12-luc cells were maintained in Dulbecco's Modification of Eagle's Medium. CCK-8 reagent was obtained from Yeasen. Cell proliferation was assessed by CCK-8 assay (Yeasen) per the manufacturer's instructions. […] Cell viability was assayed by incubating the cells with CCK-8 reagent for 1-4 hrs. Absorbance was measured at OD450 using the Beckman DTX880. The data was calculated using GraphPad Prism version 6.01. The IC50 values were fitted using a non-linear regression model with a sigmoidal dose response.
`CC(=O)Nc1cc(Nc2ncc(C(F)(F)F)c(-c3cn(C)c4cc(F)ccc34)n2)ccc1N(C)CCN(C)C` [Compound 333, N-(2-((2-(dimethylamino)ethyl)(methyl)amino)-5-((4-(6-fluoro-1-methyl-1H-indol-3-yl)-5-(trifluoromethyl)pyrimidin-2-yl)amino)phenyl)acetamide] showed an IC50 of 0.0285 µM. For `CC(=O)Nc1cc(Nc2nc(-c3c[nH]c4cccc(F)c34)c3cc[nH]c3n2)ccc1N(C)CCN(C)C` [Compound 216, N-(2-((2-(dimethylamino)ethyl)(methyl)amino)-5-((4-(4-fluoro-1H-indol-3-yl)-7H-pyrrolo[2,3-d]pyrimidin-2-yl)amino)phenyl)acetamide], the IC50 was 0.0497 µM. `CCN(CCN(C)C)c1ccc(Nc2ncc(Cl)c(-c3cn(C)c4ccccc34)n2)cc1NC(C)=O` [Compound 397, N-(5-((5-chloro-4-(1-methyl-1H-indol-3-yl)pyrimidin-2-yl)amino)-2-((2-(dimethylamino)ethyl)(ethyl)amino)phenyl)acetamide] showed an IC50 of 0.18 µM. `CC(=O)Nc1cc(Nc2ncc(F)c(-c3cn(-c4ncc(F)c(-c5c[nH]c6ccccc56)n4)c4ccccc34)n2)ccc1N(C)CCN(C)C` [Compound 259b, N-(2-((2-(dimethylamino)ethyl)(methyl)amino)-5-((5-fluoro-4-(1-(5-fluoro-4-(1H-indol-3-yl)pyrimidin-2-yl)-1H-indol-3-yl)pyrimidin-2-yl)amino)phenyl)acetamide] gave an IC50 of 0.541 µM. For `CC(=O)Nc1cc(Nc2ncc(C(F)(F)F)c(-c3cn(C)c4ccccc34)n2)cc(F)c1N(C)CCN(C)C` [Compound 308, N-(2-((2-(dimethylamino)ethyl)(methyl)amino)-3-fluoro-5-((4-(1-methyl-1H-indol-3-yl)-5-(trifluoromethyl)pyrimidin-2-yl)amino)phenyl)acetamide], the IC50 was 0.139 µM. Work on `CCC(=O)Nc1cccc(Nc2ncc(Cl)c(Nc3ccc(N4CCNCC4)cc3OC)n2)c1` [Compound 160, N-(3-((5-chloro-4-((2-methoxy-4-(piperazin-1-yl)phenyl)amino)pyrimidin-2-yl)amino)phenyl)propionamide] yielded an IC50 of 0.21 µM. Work on `CCN(CCN(C)C)c1ccc(Nc2nc(OC)c(OC)c(-c3cn(C)c4ccccc34)n2)cc1NC(C)=O` [Compound 291c, N-(5-((4,5-dimethoxy-6-(1-methyl-1H-indol-3-yl)pyrimidin-2-yl)amino)-2-((2-(dimethylamino)ethyl) (ethyl)amino)phenyl) acetamide] yielded an IC50 of 2.05 µM. `CN(C)CCN(C)c1ccc(Nc2nc(-c3cn(C)c4ccccc34)c3cc[nH]c3n2)cc1NCC(F)(F)F` [Compound 194, N^1-(2-(dimethylamino)ethyl)-N^1-methyl-N^4-(4-(1-methyl-1H-indol-3-yl)-7H-pyrrolo[2,3-d]pyrimidin-2-yl)-N^2-(2,2,2-trifluoroethyl)benzene-1,2,4-triamine] was tested, and the IC50 was 0.722 µM. In the case of `Cc1cccc2c(-c3nc(Nc4ccc(N5CC[C@@H](N(C)C)C5)c(N)c4)ncc3Cl)c[nH]c12` [Compound R-425, (R)—N^1-(5-chloro-4-(7-methyl-1H-indol-3-yl)pyrimidin-2-yl)-4-(3-(dimethylamino)pyrrolidin-1-yl)benzene-1,3-diamine], the IC50 is reported as 0.0113 µM. For `CCC(=O)Nc1cccc(Nc2ncc(Cl)c(Nc3ccc(N4CCN(C)CC4)cc3OC)n2)c1` [Compound 161, N-(3-((5-chloro-4-((2-methoxy-4-(4-methylpiperazin-1-yl)phenyl)amino)pyrimidin-2-yl)amino)phenyl)propionamide], the IC50 was 0.146 µM. In the case of `COCCCN(C)c1cc(N2CCN(C)CC2)ccc1C(=O)Nc1c[nH]c2ccc(Nc3cc(F)cc(F)c3)cc12` [Compound 501, N-(5-((3,5-difluorophenyl)amino)-1H-indol-3-yl)-2-((3-methoxypropyl)(methyl)amino)-4-(4-methylpiperazin-1-yl)benzamide], the IC50 is reported as > 1 µM. With `CN(C)CCN(C)c1ccc(Nc2ncc(Cl)c(-c3c[nH]c4c(F)cccc34)n2)cc1N` [Compound 411, N^4-(5-chloro-4-(7-fluoro-1H-indol-3-yl)pyrimidin-2-yl)-N^1-(2-(dimethylamino)ethyl)-N^1-methylbenzene-1,2,4-triamine] the IC50 was 0.0128 µM. For `CCN(C(=O)CCN(C)C)c1ccc(Nc2ncc(Cl)c(-c3cn(C)c4ccccc34)n2)cc1NC(C)=O` [Compound 406, N-(2-acetamido-4-((5-chloro-4-(1-methyl-1H-indol-3-yl)pyrimidin-2-yl)amino)phenyl)-3-(dimethylamino)-N-ethylpropanamid], the IC50 was 0.0601 µM. Work on `CC(=O)Nc1cc(Nc2ncc(C(F)(F)F)c(-c3c[nH]c4c(F)cccc34)n2)c(F)cc1N(C)CCN(C)C` [Compound 340, N-(2-((2-(dimethylamino)ethyl)(methyl)amino)-4-fluoro-5-((4-(7-fluoro-1H-indol-3-yl)-5-(trifluoromethyl)pyrimidin-2-yl)amino)phenyl)acetamide] yielded an IC50 of 0.0574 µM. `CCN(CCN(C)C)c1ccc(Nc2ncc(C(F)(F)F)c(-c3cn(C)c4c(F)cccc34)n2)cc1N` [Compound 349, N^1-(2-(dimethylamino)ethyl)-N^1-ethyl-N^4-(4-(7-fluoro-1-methyl-1H-indol-3-yl)-5-(trifluoromethyl)pyrimidin-2-yl)benzene-1,2,4-triamine] showed an IC50 of 0.245 µM. `CC(=O)Nc1cc(Nc2ncc(C(F)(F)F)c(-c3cn(C)c4c(F)cccc34)n2)ccc1N(C)CCN(C)C` [Compound 346, N-(2-((2-(dimethylamino)ethyl)(methyl)amino)-5-((4-(7-fluoro-1-methyl-1H-indol-3-yl)-5-(trifluoromethyl)pyrimidin-2-yl)amino)phenyl)acetamide] gave an IC50 of 0.105 µM. With `COc1cnc(Nc2ccc(N(C)CCN(C)C)c(NC(C)=O)c2)nc1-c1c[nH]c2ccccc12` [Compound 272a, N-(5-(4-(1H-indol-3-yl)-5-methoxypyrimidin-2-ylamino)-2-((2-(dimethylamino)ethyl)(methyl)amino)phenyl)acetamide] the IC50 was 0.041 µM. Molecule `CCN(CCN(C)C)c1c(F)cc(Nc2nc(OC)c(OC)c(-c3cn(C)c4ccccc34)n2)cc1NC(C)=O` [Compound 291d, N-(5-((4,5-dimethoxy-6-(1-methyl-1H-indol-3-yl)pyrimidin-2-yl)amino)-2-((2-(dimethylamino)ethyl) (ethyl)amino)-3-fluorophenyl)acetamide] has an IC50 of 3.27 µM. `CNc1cc(Nc2nc(-c3cn(C)c4ccccc34)c3cc[nH]c3n2)ccc1N(C)CCN(C)C` [Compound 192, N^1-(2-(dimethylamino)ethyl)-N^1,N^2-dimethyl-N^4-(4-(1-methyl-1H-indol-3-yl)-7H-pyrrolo[2,3-d]pyrimidin-2-yl)benzene-1,2,4-triamine] gave an IC50 of 0.525 µM. For `CC(=O)Nc1cc(Nc2nc(-c3c[nH]c4ccccc34)ncc2C(F)(F)F)cc(F)c1N(C)CCN(C)C` [Compound 299b, N-(5-((2-(1H-indol-3-yl)-5-(trifluoromethyl)pyrimidin-4-yl)amino)-2-((2-(dimethylamino)ethyl)(methyl)amino)-3-fluorophenyl)acetamide], the IC50 was 3.38 µM. With `CC(=O)Nc1cc(Nc2ncc(Cl)c(-c3cn(C)c4ccccc34)n2)ccc1NC(=O)CCN(C)C` [Compound 408, N-(2-acetamido-4-((5-chloro-4-(1-methyl-1H-indol-3-yl)pyrimidin-2-yl)amino)phenyl)-3-(dimethylamino)propanamide] the IC50 was 0.0197 µM. Work on `COc1nc(Nc2ccc(N(C)CCN(C)C)c(NC(C)=O)c2)nc(-c2cn(C)c3ccccc23)c1OC` [Compound 291a, N-(5-((4,5-dimethoxy-6-(1-methyl-1H-indol-3-yl)pyrimidin-2-yl)amino)-2-((2-(dimethylamino)ethyl) (methyl)amino)phenyl)acetamide] yielded an IC50 of 8.67 µM. `COc1cccc2c(-c3nc(Nc4ccc5c(c4)nc(C)n5CCN(C)C)ncc3C(F)(F)F)cn(C)c12` [Compound 387, 1-(2-(dimethylamino)ethyl)-N-(4-(7-methoxy-1-methyl-1H-indol-3-yl)-5-(trifluoromethyl)pyrimidin-2-yl)-2-methyl-1H-benzo[d]imidazol-5-amine] showed an IC50 of 0.114 µM. For `CC(=O)Nc1cc(Nc2nc(-c3cn(C)c4cccc(F)c34)c3cc[nH]c3n2)ccc1N(C)CCN(C)C` [Compound 218, N-(2-((2-(dimethylamino)ethyl)(methyl)amino)-5-((4-(4-fluoro-1-methyl-1H-indol-3-yl)-7H-pyrrolo[2,3-d]pyrimidin-2-yl)amino)phenyl)acetamide], the IC50 was 0.103 µM. For `Cc1cccc2c(-c3nc(Nc4ccc5c(c4)nc(C)n5CCN(C)C)ncc3C(F)(F)F)cn(C)c12` [Compound 371, N-(4-(1,7-dimethyl-1H-indol-3-yl)-5-(trifluoromethyl)pyrimidin-2-yl)-1-(2-(dimethylamino)ethyl)-2-methyl-1H-benzo[d]imidazol-5-amine], the IC50 was 0.11 µM. For `CCC(=O)Nc1cc(Nc2ncc(C(F)(F)F)c(-c3c[nH]c4ccccc34)n2)ccc1N(CC)CCN(C)C` [Compound 302, N-(5-((4-(1H-indol-3-yl)-5-(trifluoromethyl)pyrimidin-2-yl)amino)-2-((2-(dimethylamino)ethyl)(ethyl)amino)phenyl)propionamide], the IC50 was 0.0968 µM.

Same assay, conditions: KM12-luc cells, treated with test compounds for 72 hrs, CCK-8 viability; read-out: NTRK IC50 in KM12-luc
In the case of `COc1cccc2c(-c3nc(Nc4ccc(N5CC[C@@H](N(C)C)C5)c(N)c4)ncc3Cl)cn(C)c12` [Compound R-420, (R)—N^1-(5-chloro-4-(7-methoxy-1-methyl-1H-indol-3-yl)pyrimidin-2-yl)-4-(3-(dimethylamino)pyrrolidin-1-yl)benzene-1,3-diamine], the IC50 is reported as 0.072 µM.
